Two compounds from patent US10072304B2, “Nuclear localization of Src-family tyrosine kinases is required for growth factor-induced euchromatinization” (National University Corporation Chiba University, priority 2009, dated 2018) can be followed below.

One test has as its system SYF cells. Description: Quantitation of chromatin condensation levels (S.D. value of PI intensity per pixel) in SYF cells. Type of test: cell-based, mouse. The settings on record: 3 mM Na3VO4 for 3 h. Here is the method:
COS-1, HeLa cells (Japanese Collection of Research Bioresources, Osaka), MCF-7 (provided by H. Saya), A431 (provided by M. N. Fukuda), HEK293 (provided by M. Tagawa), HCT116 (provided by T. Tomonaga), and SYF ([37]; provided by M. Okada and S. Nada) cells were cultured in Iscove's modified DME containing 5% fetal bovine serum (FBS). Cells were transiently transfected with 0.5 μg of plasmid vector using Trans IT Transfection reagent (Mirus) or with 1 μg of plasmid vector using linear polyethylenimine (25 kDa) (Polyscience, Inc.). For growth factor stimulation, COS-1 cells were starved under low serum conditions (0.05% FBS) for 24 h and restimulated with serum (5% FBS). […]
Confocal and Nomarski differential-interference-contrast images were obtained using a Fluoview FV500 confocal laser scanning microscope with a 40×1.00 NA oil and a 100×1.35 NA oil immersion objective (Olympus, Tokyo) and an LSM 510 confocal laser scanning microscope with a 63×1.40 NA oil immersion objective (Zeiss), as described. […] Emission signals were detected between 505 and 525 nm for fluorescein, at more than 560 nm for rhodamine and more than 610 nm for PI [44]. […] Fluorescence intensity plots of anti-histone H3K4me3, anti-ATF-2 pT69/71 and anti-HP1α antibody and PI staining (see FIGS. 18B, 19B, and 20B, respectively) were generated using Fluoview version 4.3 software (Olympus, Tokyo). […]

Another test has as its system COS-1 cells. The test can be described thus: Anti-pTyr immunofluorescent staining of tyrosine phosphorylation in COS-1 cells. Type of test: cell-based, monkey. Here is the method: COS-1, HeLa cells (Japanese Collection of Research Bioresources, Osaka), MCF-7 (provided by H. Saya), A431 (provided by M. N. Fukuda), HEK293 (provided by M. Tagawa), HCT116 (provided by T. Tomonaga), and SYF ([37]; provided by M. Okada and S. Nada) cells were cultured in Iscove's modified DME containing 5% fetal bovine serum (FBS). Cells were transiently transfected with 0.5 μg of plasmid vector using Trans IT Transfection reagent (Mirus) or with 1 μg of plasmid vector using linear polyethylenimine (25 kDa) (Polyscience, Inc.). For growth factor stimulation, COS-1 cells were starved under low serum conditions (0.05% FBS) for 24 h and restimulated with serum (5% FBS). For stimulation of endogenous SFKs, cells were treated with 3 mM Na3VO4 for 3 h, and SFK-mediated tyrosine phosphorylation was verified by treatment with 10 μM PP2 (SFK inhibitor; Calbiochem) or 100 nM wortmannin (PI3K inhibitor; Alomone Labs) for 21 h before Na3VO4 treatment. Na3VO4 was dissolved at 500 mM in 500 mM unbuffered HEPES before use. For preparation of stable transfectant clones, SYF cells transfected with c-Src-wt or Lyn-wt were selected in 333 μg/mL Zeocin (Invitrogen), and COS-1 cells were transfected with the BOSH2BGFP-N1 vector, which encodes GFP-tagged histone H2B ([39,40]; provided by H. Saya), were selected in 3 μg/mL blasticidin.
Confocal and Nomarski differential-interference-contrast images were obtained using a Fluoview FV500 confocal laser scanning microscope with a 40×1.00 NA oil and a 100×1.35 NA oil immersion objective (Olympus, Tokyo) and an LSM 510 confocal laser scanning microscope with a 63×1.40 NA oil immersion objective (Zeiss), as described. One planar (xy) section slice (0.6-μm thickness) is shown in all experiments. In brief, cells were fixed with 4% paraformaldehyde for 20 min, and permeabilized in phosphate-buffered saline (PBS) containing 0.1% saponin and 3% bovine serum albumin at room temperature. Cells were subsequently reacted with an appropriate primary antibody for 1 h, washed with PBS containing 0.1% saponin, stained with FITC- or TRITC-conjugated secondary antibody for 1 h. For DNA staining, cells were subsequently treated with 200 μg/ml RNase A for 1 h and 20 μg/ml propidium iodide (PI) for 30 min, and mounted with Prolong Antifade™ reagent (Molecular Probes). To ensure no bleed-through from the fluorescein signal into the red channel, fluorescein and rhodamine were independently excited at 488 nm and 543 nm, respectively. PI was excited at 488 or 543 nm. Emission signals were detected between 505 and 525 nm for fluorescein, at more than 560 nm for rhodamine and more than 610 nm for PI [44]. Composite figures were prepared using Photoshop 5.0 and Illustrator 9.0 software (Adobe). For nuclear staining with anti-pTyr, anti-ATF-2 pT69/71, and anti-histone H3K4me3 antibodies, cells were in situ extracted with 0.5% Triton X-100 at 4° C. for 3 min before fixation with 4% paraformaldehyde. For HP1α staining, cells were fixed in 100% methanol at −20° C. for 10 min followed by permeabilization for 30 min in PBS containing 0.1% Triton X-100 at room temperature. Cells were reacted with anti-HP1α antibody for 1 h at room temperature, washed with PBS four times, and stained with secondary antibody for 1 h. Fluorescence intensity plots of anti-histone H3K4me3, anti-ATF-2 pT69/71 and anti-HP1α antibody and PI staining (see FIGS. 18B, 19B, and 20B, respectively) were generated using Fluoview version 4.3 software (Olympus, Tokyo). […]

Entries after “also recorded” stand apart in the source; their conditions may differ.

As to `[Na+].[Na+].[Na+].[O]=[V]([O-])([O-])[O-]` [Na3VO4, sodium orthovanadate], in the test with SYF cells (SYF cells, FIG. 49), the “levels of chromatin hypo- and hypercondensation” value is recorded as “much lower than those in Na3VO4-treated COS-1 cells; also recorded: modestly induced”. Also, the “chromatin hypo- and hypercondensation” value in the test on SYF cells (SYF/c-Src-wt cells, FIGS. 48A and 49) was “an increase”. Also, the “tyrosine phosphorylation throughout the cell” value with COS-1 cells (3 mM Na3VO4 for 3 h, FIG. 23) was “greatly increased”. Moreover, the “tyrosine phosphorylation within the nucleus” value in the test with COS-1 cells (Na3VO4, in situ extraction with 0.5% Triton X-100 before fixation, FIGS. 24 and 25) is reported as “increase in tyrosine phosphorylation induced by Na3VO4 was clearly visible”.

For the compound `CC(C)(C)n1nc(-c2ccc(Cl)cc2)c2c(N)ncnc21` [PP2], the “basal levels of tyrosine phosphorylation” value in the test with COS-1 cells (10 μM PP2 or 100 nM wortmannin for 24 h, FIG. 22) is reported as “significantly reduce”. The “tyrosine phosphorylation in Na3VO4-treated cells” value in the test on COS-1 cells (10 μM PP2 pretreatment 21 h, then 3 mM Na3VO4 3 h, FIG. 23) is reported as “decreased”. For the same compound, the “Na3VO4-induced increase in nuclear tyrosine phosphorylation” value in the test with COS-1 cells (PP2 plus Na3VO4, in situ extraction with 0.5% Triton X-100, FIGS. 24 and 25) is recorded as “significantly inhibited”.
